# Source: patent US20220396569A1 (Carmot Therapeutics, Inc., priority 2021, published 2022)
# pEC50: −log10 of the molar value.
# Target: T1, human GLP-1 receptor (Homo sapiens, UniProt P43220)
# T1 construct: expressed in transfected cells
# Test: GLP-1R cAMP Assay (HitHunter cAMP accumulation)
# Format: cell-based
# Conditions: cAMP accumulation, CHO cells stably overexpressing human GLP-1 receptor, 30 min treatment; read-out: EC50
# Outline: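 CHO cells stably expressing human GLP-1R, 10,000 cells/well in HBSS with 10 mM HEPES and 625 μM IBMX, were mixed with anti-cAMP antibody reagent. Compound was applied as a 20-point dose response in triplicate for 30 min. After lysis and overnight detection, luminescence was read and dose-response curves analysed.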
# T1 sequence (P43220 24-463): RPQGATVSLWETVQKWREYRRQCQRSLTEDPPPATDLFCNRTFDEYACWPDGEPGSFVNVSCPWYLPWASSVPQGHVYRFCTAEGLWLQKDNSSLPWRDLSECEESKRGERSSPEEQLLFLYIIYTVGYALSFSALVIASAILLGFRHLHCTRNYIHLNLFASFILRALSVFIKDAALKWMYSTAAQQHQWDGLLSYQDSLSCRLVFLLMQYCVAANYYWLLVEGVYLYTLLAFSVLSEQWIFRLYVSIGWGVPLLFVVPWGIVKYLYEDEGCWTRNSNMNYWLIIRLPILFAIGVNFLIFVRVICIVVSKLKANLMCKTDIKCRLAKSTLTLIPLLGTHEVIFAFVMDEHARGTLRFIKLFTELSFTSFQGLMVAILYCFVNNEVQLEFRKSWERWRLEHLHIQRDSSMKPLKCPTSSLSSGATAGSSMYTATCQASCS
row,Structure (SMILES),pEC50
1,"N#Cc1ccc(OCc2cc([C@@H]3CCN(Cc4nc5c(F)cc(C(=O)O)cc5n4C[C@@H]4CCO4)C3)ccc2F)c(F)c1 [Compound 450, 2-{[(3S)-3-{3-[(4-cyano-2-fluorophenoxy)methyl]-4-fluorophenyl}pyrrolidin-1-yl]methyl}-4-fluoro-1-{[(2S)-oxetan-2-yl]methyl}-1H-1,3-benzodiazole-6-carboxylic acid]",> 7.30
2,"O=C(O)c1ccc2nc(CN3CC=C(c4ccc(F)c(COc5ccc(Cl)cc5Cl)c4)C3)n(Cc3cnco3)c2c1 [Compound 387, 2-[(3-{3-[(2,4-dichlorophenoxy)methyl]-4-fluorophenyl}-2,5-dihydro-1H-pyrrol-1-yl)methyl]-1-[(1,3-oxazol-5-yl)methyl]-1H-1,3-benzodiazole-6-carboxylic acid]",> 7.30
3,"N#CCC1(Cn2c(CN3CC=C(c4ccc(F)c(COc5ccc(Cl)cc5F)n4)C3)nc3ccc(C(=O)O)cc32)CC1 [Compound 429, 2-[(3-{6-[(4-chloro-2-fluorophenoxy)methyl]-5-fluoropyridin-2-yl}-2,5-dihydro-1H-pyrrol-1-yl)methyl]-1-{[1-(cyanomethyl)cyclopropyl]methyl}-1H-1,3-benzodiazole-6-carboxylic acid]",> 7.30
4,"N#Cc1ccc(OCc2nc([C@@H]3C[C@@H](CF)N(Cc4nc5ccc(C(=O)O)cc5n4C[C@@H]4CCO4)C3)ccc2F)c(F)c1 (single isomer, unassigned) [Compound 526]",6.30 to 7.30
5,"C[C@H]1[C@@H](Oc2ccnc(COc3ccc(Cl)cc3F)n2)CN1Cc1nc2ccc(C(=O)O)cc2n1C[C@@H]1CCO1 [Compound 547, 2-{[(2S,3S)-3-({2-[(4-chloro-2-fluorophenoxy)methyl]pyrimidin-4-yl}oxy)-2-methylazetidin-1-yl]methyl}-1-{[(2S)-oxetan-2-yl]methyl}-1H-1,3-benzodiazole-6-carboxylic acid]",> 7.30
6,"O=C(O)c1ccc2nc(CN3CC=C(c4cc(COc5ccc(Cl)cc5F)ncc4F)C3)n(C[C@@H]3CCO3)c2c1 [Compound 440, 2-[(3-{2-[(4-chloro-2-fluorophenoxy)methyl]-5-fluoropyridin-4-yl}-2,5-dihydro-1H-pyrrol-1-yl)methyl]-1-{[(2S)-oxetan-2-yl]methyl}-1H-1,3-benzodiazole-6-carboxylic acid]",> 7.30
7,"O=C(O)c1ccc2nc(CN3CC[C@H](c4ccc(F)c(COc5ccc(Cl)cc5F)n4)C3)n(C[C@@H]3CCO3)c2c1 (single isomer, unassigned) [Compound 517]",> 7.30
8,O=C(O)c1ccc2nc(CN3CCC(c4ccnc(COc5ccc(Cl)cc5Cl)c4)C3)n(C[C@@H]3CCO3)c2c1 (stereo partly drawn) [Compound 399],> 7.30
9,N#Cc1cc(Cl)ccc1OCc1cccc(OC2CN(Cc3nc4ccc(C(=O)O)cc4n3C[C@@H]3CCO3)C2)c1 [Compound 194],> 7.30
10,"O=C(O)c1cc(F)c2nc(Cc3cc(F)c(Oc4ccnc(COc5ccc(Cl)cc5F)c4)cc3F)n(C[C@@H]3CCO3)c2c1 [Compound 538, 2-{[4-({2-[(4-chloro-2-fluorophenoxy)methyl]pyridin-4-yl}oxy)-2,5-difluorophenyl]methyl}-4-fluoro-1-{[(2S)-oxetan-2-yl]methyl}-1H-1,3-benzodiazole-6-carboxylic acid]",> 7.30
11,"N#Cc1ccc(OCc2nc(C3=CCN(Cc4nc5ccc(C(=O)O)cc5n4CC4(CC(N)=O)CC4)C3)ccc2F)c(F)c1 [Compound 423, 1-{[1-(carbamoylmethyl)cyclopropyl]methyl}-2-[(3-{6-[(4-cyano-2-fluorophenoxy)methyl]-5-fluoropyridin-2-yl}-2,5-dihydro-1H-pyrrol-1-yl)methyl]-1H-1,3-benzodiazole-6-carboxylic acid]",6.30 to 7.30
12,"O=C(O)c1ccc2nc(CN3CC=C(c4cc(COc5ccc(Cl)cc5Cl)ccn4)C3)n(Cc3cnco3)c2c1 [Example 390, 2-((3-(4-((2,4-Dichlorophenoxy)methyl)pyridin-2-yl)-2,5-dihydro-1H-pyrrol-1-yl)methyl)-1-(oxazol-5-ylmethyl)-1H-benzo[d]imidazole-6-carboxylic acid]",> 7.30
